Laboratory results: US8802664B2 (Bioproject, priority 2010, dated 2014)

Target: T1, human H4 receptor (Homo sapiens, UniProt Q9H3N8)
T1 construct: expressed in transfected cells
Assay: [3H]Histamine binding on membranes of CHO cells stably expressing human H4 receptor
Procedure: CHO cells stably expressing human H4 receptor were grown until sub-confluence and centrifuged at 300 g 15 minutes at 4° C. Pellets were resuspended in buffer I Tris-HCl 50 mM, MgCl2 10 mM, NaCl 140 mM, pH=7.4 supplemented by a 1/50 dilution of a mix of protease inhibitors. The obtained suspension is stirred gently and submitted to a […] exerted through a syringe. The cell lysate is then centrifuged at 300 g 15 minutes at 4° C. in order to eliminate nucleus and cell scraps. The obtained supernatant was then centrifuged at 48000 g for 30 minutes at 4° C. The final pellet is resuspended in buffer I with a potter homogenizer. Aliquots were frozen in liquid nitrogen and stored until use at −80° C. Protein content is measured by the Bradford method.
Defreezed membranes were diluted at a final concentration of 20 μg/180 μL/well in a binding buffer containing 50 mM Tris/HCl, 0.5 mM EDTA, pH=7.4 and distributed in 96 well polystyrene microplate. [^3H] […] Non specific binding was estimated in the presence of 10 μM BP1.2404 (JNJ 7777120). The reaction was terminated by filtration through GF/B filters pre-soaked 2 hours at 4° C. in […]. Filters were rinsed 3 times with 250 μl of ice cold incubation binding buffer.
The filter-bound radioactivity was measured in a liquid scintillation counter Microbeta TRILUX® with 50 μl of scintillation fluid.
The hH4 binding investigated by use of [^3H]

T1 sequence (Q9H3N8 whole entry): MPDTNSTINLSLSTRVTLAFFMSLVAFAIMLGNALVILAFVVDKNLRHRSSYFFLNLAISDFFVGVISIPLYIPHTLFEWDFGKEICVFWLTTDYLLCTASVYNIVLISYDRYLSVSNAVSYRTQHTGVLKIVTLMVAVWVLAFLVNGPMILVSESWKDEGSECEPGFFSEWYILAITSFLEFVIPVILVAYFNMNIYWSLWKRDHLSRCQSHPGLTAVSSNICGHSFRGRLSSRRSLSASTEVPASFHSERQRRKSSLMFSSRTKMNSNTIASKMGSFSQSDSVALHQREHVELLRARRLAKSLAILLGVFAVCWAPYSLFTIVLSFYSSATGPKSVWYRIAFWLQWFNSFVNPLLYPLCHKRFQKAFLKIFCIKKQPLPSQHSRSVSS

Row | Compound | Ki or IC50 activity class [nM]
1 | CN1CCC(OC(c2cccc(CCc3c[nH]cn3)c2)c2nc3ccccc3[nH]2)CC1 (centres unmarked) [Example 412, 2-[{3-[2-(1H-imidazol-4-yl)ethyl]phenyl}(1-methylpiperidin-4-yloxy)methyl]-1H-benzimidazole] | < 1000
2 | CN1CCC(OC(c2cccc(OCCCCN3CCOCC3)c2)c2nc3ccccc3s2)CC1 (centres unmarked) [Example 322, 2-{(1-methylpiperidin-4-yloxy)[3-(4-morpholin-4-yl-butoxy)phenyl]methyl}benzothiazole] | < 1000
3 | CN1CCC(OC(c2ccc3c(c2)OC(F)(F)O3)c2nc3ccccc3[nH]2)CC1 (centres unmarked) [Example 521] | < 1000
4 | CN1CCC(COC(c2cccc(Br)c2)c2nc3cc(F)ccc3[nH]2)C1 (centres unmarked) [Example 449, 2-[(3-bromophenyl)(1-methylpyrrolidin-3-ylmethoxy)methyl]-5-fluoro-1H-benzimidazole] | < 30
5 | CN1CCC(NC(c2cccc(SCc3ccccc3)c2)c2nc3ccccc3[nH]2)CC1 (centres unmarked) [Example 104, [(1H-benzimidazol-2-yl)(3-benzylsulfanylphenyl)methyl](1-methylpiperidin-4-yl)amine] | < 30
6 | CN1CCC(OC(c2cccc(C(=O)N(C)c3ccccc3)c2)c2nc3ccccc3s2)CC1 (centres unmarked) [Example 223, 3-[benzothiazol-2-yl(1-methylpiperidin-4-yloxy)methyl]-N-methyl-N-phenylbenzamide] | < 300
7 | CN1CCC(OC(c2cccc(-c3cccc(N)c3)c2)c2nc3ccccc3s2)CC1 (centres unmarked) [Example 79, 3′-[benzothiazol-2-yl(1-methylpiperidin-4-yloxy)methyl]biphenyl-3-ylamine] | < 300
8 | CN1CCC(OC(c2cccc(OC3CCNC3)c2)c2nc3ccccc3s2)CC1 (centres unmarked) [Example 382, 2-{(1-methylpiperidin-4-yloxy)[3-(pyrrolidin-3-yloxy)phenyl]methyl}benzothiazole] | < 30
9 | CN1CCC(OC(c2nc3ccccc3[nH]2)c2cc(OC(F)(F)F)ccc2Cl)CC1 (centres unmarked) [Example 524] | < 300
10 | CN1CCC(OC(c2cccc(OCc3cccc(F)c3)c2)c2nc3ccccc3s2)CC1 (centres unmarked) [Example 171, 2-[[3-(3-fluorobenzyloxy)phenyl](1-methylpiperidin-4-yloxy)methyl]benzothiazole] | < 30
11 | CN1CCC(OC(c2cccc(CCCCCN)c2)c2nc3ccccc3s2)CC1 (centres unmarked) [Example 289, 5-{3-[benzothiazol-2-yl(1-methylpiperidin-4-yloxy)methyl]phenyl}pentylamine] | < 30
12 | CN1CCC(OC(c2cccc(N3CC4CC(F)CC4C3)c2)c2nc3ccccc3s2)CC1 (centres unmarked) [Example 492] | < 1000
13 | CN1CCC(OC(c2cccc(-n3cccn3)c2)c2nc3ccccc3s2)CC1 (centres unmarked) [Example 147, 2-[(1-methylpiperidin-4-yloxy)(3-pyrazol-1-ylphenyl)methyl]benzothiazole] | < 300
14 | CN1CCC(OC(c2cccc(-c3cccnc3)c2)c2nc3ccccc3[nH]2)CC1 (centres unmarked) [Example 89, 2-[(1-methylpiperidin-4-yloxy)(3-pyridin-3-ylphenyl)methyl]-1H-benzimidazole] | < 300
15 | CN1CCC(OC(c2cccc(-c3cccc(F)c3)c2)c2nc3ccccc3s2)CC1 (centres unmarked) [Example 139, 2-[(3′-fluorobiphenyl-3-yl)(1-methylpiperidin-4-yloxy)methyl]benzothiazole] | < 30
16 | Cc1cc(F)c(C(OC2CCN(C)CC2)c2nc3ccccc3[nH]2)c(F)c1 (single isomer, unassigned) [Example 559, 2-[(2,6-difluoro-4-methylphenyl)(1-methylpiperidin-4-yloxy)methyl]-1H-benzimidazole] | < 30
17 | CN1CCC(OC(c2cccc(OCc3cccc(F)c3F)c2)c2nc3ccccc3s2)CC1 (centres unmarked) [Example 161, 2-[[3-(2,3-difluorobenzyloxy)phenyl](1-methylpiperidin-4-yloxy)methyl]benzothiazole] | < 30
18 | CC(O)CSc1cccc(C(OC2CCN(C)CC2)c2nc3ccccc3s2)c1 (centres unmarked) [Example 255, 1-{3-[benzothiazol-2-yl(1-methylpiperidin-4-yloxy)methyl]phenylsulfanyl}propan-2-ol] | < 30
19 | CN1CCC(OC(c2cccc(SCCNC3=NCCS3)c2)c2nc3ccccc3[nH]2)CC1 (centres unmarked) [Example 299, (2-{3-[(1H-benzimidazol-2-yl)(1-methylpiperidin-4-yloxy)methyl]phenyl-sulfanyl}ethyl)(4,5-dihydrothiazol-2-yl)amine] | < 1000
20 | CSc1cccc(-c2cccc(C(OC3CCN(C)CC3)c3nc4ccccc4s3)c2)c1 (centres unmarked) [Example 128, 2-[(1-methylpiperidin-4-yloxy)(3′-methylsulfanylbiphenyl-3-yl)methyl]benzothiazole] | < 300
21 | CN1CCC(OC(c2cccc(SCC(=O)NN)c2)c2nc3ccccc3s2)CC1 (centres unmarked) [Example 264, {3-[benzothiazol-2-yl(1-methylpiperidin-4-yloxy)methyl]phenylsulfanyl}acetic acid hydrazide] | < 300

Row | Compound | Ki or IC50 activity class [nM]
22 | CN1CCC(OC(c2nc3ccccc3[nH]2)c2cc(OC(F)(F)F)ccc2F)CC1 (single isomer, unassigned) [Example 435, 2-[(2-fluoro-5-trifluoromethoxyphenyl)(1-methylpiperidin-4-yloxy)methyl]-1H-benzimidazole] | < 30
23 | CN1CCC(OC(c2cc(C(F)(F)F)cc(C(F)(F)F)c2)c2nc3ccccc3[nH]2)CC1 (centres unmarked) [Example 547] | < 1000
24 | CN1CCC(OC(c2cccc(OCCCn3cncn3)c2)c2nc3ccccc3s2)CC1 (centres unmarked) [Example 348, 2-{(1-methylpiperidin-4-yloxy)[3-(3-[1,2,4]triazol-1-yl-propoxy)phenyl]methyl}benzothiazole] | < 1000
25 | COCCn1c(C(OC2CCN(C)CC2)c2cccc(C#CCCCCN)c2)nc2ccccc21 (centres unmarked) [Example 501] | < 300
26 | COc1ccc(F)c(C(OCC2CCN(C)C2)c2nc3ccccc3[nH]2)c1 (centres unmarked) [Example 504] | < 30
27 | CC(=O)COCc1cccc(C(OC2CCN(C)CC2)c2nc3ccccc3s2)c1 (centres unmarked) [Example 270, 1-{3-[benzothiazol-2-yl(1-methylpiperidin-4-yloxy)methyl]benzyloxy}propan-2-one] | < 1000
28 | CN1CCC(OC(c2cccc(C=CCN)c2)c2nc3ccccc3[nH]2)CC1 (centres unmarked) [Example 488] | < 1000
29 | CN1CCC(NC(c2cccc(SCc3ccccc3)c2)c2nc3ccccc3s2)CC1 (centres unmarked) [Example 107, [benzothiazol-2-yl(3-benzylsulfanylphenyl)methyl](1-methylpiperidin-4-yl)amine] | < 30
30 | CSc1cccc(C(OC2CCN(C)CC2)c2nc3ccccc3s2)c1 (centres unmarked) [Example 201, 2-[(1-methylpiperidin-4-yloxy)(3-methylsulfanyl-phenyl)methyl]benzothiazole] | < 30
31 | CN1CC(COC(c2nc3ccccc3[nH]2)c2cc(OC(F)(F)F)ccc2F)C1 (centres unmarked) [Example 516] | < 300
32 | CN1CCC(OC(c2cccc(OC3CCNC3)c2)c2nc3ccccc3[nH]2)CC1 (centres unmarked) [Example 461] | < 300
33 | Cc1ccc(C(OC2CCN(C)CC2)c2nc3ccccc3[nH]2)cc1 (single isomer, unassigned) [Example 252, 2-[(1-methylpiperidin-4-yloxy)-p-tolylmethyl]-1H-benzimidazole] | < 1000
34 | COC(=O)c1cccc(C(OC2CCN(C)CC2)c2nc3ccccc3s2)c1 (centres unmarked) [Example 199, 3-[benzothiazol-2-yl(1-methylpiperidin-4-yloxy)methyl]benzoic acid methyl ester] | < 300
35 | CN1CCC(OC(c2nc3ccccc3o2)c2cc(OC(F)(F)F)ccc2F)CC1 (centres unmarked) [Example 525, 2-[(2-fluoro-5-trifluoromethoxyphenyl)(1-methylpiperidin-4-yloxy)methyl]benzoxazole] | < 300
36 | CN1CCC(OC(c2cccc(-c3cccc(CO)c3)c2)c2nc3ccccc3s2)CC1 (centres unmarked) [Example 54] | < 300
37 | CN1CCC(OC(c2cccc(OCCF)c2)c2nc3ccccc3[nH]2)CC1 (centres unmarked) [Example 476] | < 30
38 | CN1CCC(OC(c2cccc(Cl)c2)c2nc3ccccc3[nH]2)CC1 (centres unmarked) [Example 225, 2-[(3-chlorophenyl)(1-methylpiperidin-4-yloxy)methyl]-1H-benzimidazole] | < 300
39 | CN1CCC(OC(c2ccccc2)c2nc3ccccc3s2)C1 (centres unmarked) [Example 2, 2-[(1-methylpyrrolidin-3-yloxy)phenyl-methyl]benzothiazole] | < 1000
40 | CN1CCC(OC(c2cccc(C=CC(=O)OC(C)(C)C)c2)c2nc3ccccc3s2)CC1 (centres unmarked) [Example 205, 3-{3-[benzothiazol-2-yl(1-methylpiperidin-4-yloxy)methyl]phenyl}acrylic acid tert-butyl ester] | < 1000
41 | CSCCOc1cccc(C(OC2CCN(C)CC2)c2nc3ccccc3s2)c1 (centres unmarked) [Example 250, 2-{(1-methylpiperidin-4-yloxy)[3-(2-methylsulfanyl-ethoxy)phenyl]methyl}benzothiazole] | < 300
